# Test results from PMC13429874, “ABHD2 activity is not required for the non-genomic action of progesterone on human sperm” (Human Reproduction (Oxford, England), 2026).
# Experiments:
# [1] = target: T1, full-length human ABHD2 (ABHD2^FL) (Homo sapiens, UniProt P08910); experiment: ABHD2^FL enzymatic activity assay with 7-HCA substrate; format: biochemical; details: Supplementary Table S2; read-out: IC50 measured in ABHD2^FL in the 7-HCA Assay
# T1 construct: TEV site-eGFP-8xHis (C, cleaved yes); made in house; host or cells: SF9 insect cells (baculovirus)
# T1 sequence (P08910 1-425): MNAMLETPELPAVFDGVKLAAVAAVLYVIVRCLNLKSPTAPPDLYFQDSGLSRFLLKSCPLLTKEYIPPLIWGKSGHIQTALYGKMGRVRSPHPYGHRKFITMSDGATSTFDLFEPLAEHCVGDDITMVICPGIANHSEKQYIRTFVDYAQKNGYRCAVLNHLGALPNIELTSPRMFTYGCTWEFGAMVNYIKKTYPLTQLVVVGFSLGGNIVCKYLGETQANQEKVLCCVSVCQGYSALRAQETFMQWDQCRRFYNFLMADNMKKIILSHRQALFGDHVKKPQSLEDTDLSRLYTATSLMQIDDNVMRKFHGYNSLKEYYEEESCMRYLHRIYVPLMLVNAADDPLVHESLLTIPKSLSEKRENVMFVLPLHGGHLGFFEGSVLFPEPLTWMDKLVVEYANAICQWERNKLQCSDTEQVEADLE
# ABHD2^L33–E425 [2] = target: T2, ABHD2^L33–E425 (Homo sapiens, UniProt P08910); experiment: ABHD2^L33-E425 fluorometric enzymatic activity assay with 7-HCA substrate; format: biochemical; details: 10 nM enzyme, 10 µM 7-HCA; read-out: IC50 for ABHD2^L33-425, fluorometric assay using 7-HCA
# T2 construct: expression for ABHD2 amino acids L33–E425, in which a predicted transmembrane domain (amino acids 1–32) is removed; His6-FLAG (N); made in house; host or cells: E. coli BL21(DE3)-R3-pRARE2
# T2 sequence (P08910 33-425): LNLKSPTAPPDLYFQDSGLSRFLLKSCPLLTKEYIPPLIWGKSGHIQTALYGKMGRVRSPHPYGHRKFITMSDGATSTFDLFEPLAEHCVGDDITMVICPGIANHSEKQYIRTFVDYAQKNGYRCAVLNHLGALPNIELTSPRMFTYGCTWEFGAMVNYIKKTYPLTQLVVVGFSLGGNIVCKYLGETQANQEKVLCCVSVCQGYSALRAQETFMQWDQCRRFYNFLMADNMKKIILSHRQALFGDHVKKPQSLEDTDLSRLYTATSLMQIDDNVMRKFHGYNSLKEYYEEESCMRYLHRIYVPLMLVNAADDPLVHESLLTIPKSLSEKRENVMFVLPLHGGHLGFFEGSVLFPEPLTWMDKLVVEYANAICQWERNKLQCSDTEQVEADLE
# ABHD2^L33–E425 [3] = target: T2, ABHD2^L33–E425; experiment: Differential scanning fluorimetry (DSF) with purified ABHD2^L33–E425; format: binding
# human ABHD10 = target: T3, human ABHD10 (Homo sapiens, UniProt Q9NUJ1); experiment: ABHD10 colorimetric assay with p-nitrophenyl butyrate; format: biochemical; details: 10 µM compound, 500 µM p-NPB
# T3 construct: Constructs encoding amino acids T53—N306 of human ABHD10; His6-TEV site (N); made in house; host or cells: E. coli
# T3 sequence (Q9NUJ1 53-306): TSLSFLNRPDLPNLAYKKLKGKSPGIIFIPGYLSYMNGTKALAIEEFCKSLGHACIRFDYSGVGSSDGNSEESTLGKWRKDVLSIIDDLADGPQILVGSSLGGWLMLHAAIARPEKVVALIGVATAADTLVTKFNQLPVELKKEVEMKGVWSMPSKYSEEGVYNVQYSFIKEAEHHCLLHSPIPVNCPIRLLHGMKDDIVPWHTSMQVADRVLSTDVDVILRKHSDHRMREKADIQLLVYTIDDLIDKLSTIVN
# Procedure: (§1) Enzymatic activities of ABHD10 and ABHD11 were measured in a colorimetric assay using p-nitrophenyl butyrate (p-NPB) as substrate. Enzymes at 1500 nM ABHD10 and 125 nM ABHD11 in 20 mM HEPES pH 7.5, 150 mM NaCl, and 2% (v/v) DMSO were pre-incubated in 96-well plates with 50 µM test compound for 30 min at 4°C. Plates were then equilibrated at 37°C for 2 min, and reactions were initiated by adding 160 µl of pre-warmed substrate solution (same buffer with 625 µM p-NPB) to a total volume of 200 µl, yielding final assay concentrations of 300 nM ABHD10, 25 nM ABHD11, and 500 µM pNPB. The substrate solution was prepared immediately before addition to the enzyme mixtures. Absorbance at 405 nm was recorded on a SpectraMax iD3 plate reader (Molecular Devices) for 20 min with continuous monitoring at 30 s intervals.
# human ABHD11 = target: T4, human ABHD11 (Homo sapiens, UniProt Q8NFV4); experiment: ABHD11 colorimetric assay with p-nitrophenyl butyrate; format: biochemical; details: 10 µM compound, 500 µM p-NPB
# T4 construct: residues V34—V315 of human ABHD11; His6-TEV site (N); made in house; host or cells: E. coli
# T4 sequence (Q8NFV4 25-306 limits assumed): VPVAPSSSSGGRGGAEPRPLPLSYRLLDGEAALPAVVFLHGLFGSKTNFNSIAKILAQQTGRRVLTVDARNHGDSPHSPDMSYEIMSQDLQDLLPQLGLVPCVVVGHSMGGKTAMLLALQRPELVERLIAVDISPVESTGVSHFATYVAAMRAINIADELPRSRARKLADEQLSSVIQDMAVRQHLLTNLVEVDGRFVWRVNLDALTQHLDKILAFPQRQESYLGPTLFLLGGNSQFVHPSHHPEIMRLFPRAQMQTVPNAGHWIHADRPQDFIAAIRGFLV
# Procedure: as §1
structure (smiles),measurement,setting,value
CC1CCCN(C(=O)c2ccccc2C(=O)c2ccccc2)C1 (stereo not drawn) [Compound 4],IC50,[1],1200 nM
same,IC50,ABHD2^L33–E425 [2],360 nM
same,"effect on melting temperature / thermal stability of ABHD2^L33-E425 (DSF), in words","ABHD2^L33–E425 [3]; 10 µM compound, 30 min pre-incubation",increased melting temperature
same,ΔTm shift for ABHD2^L33-425 determined by DSF,ABHD2^L33–E425 [3]; purified protein,14 °C
same,inhibition of ABHD10,human ABHD10,no detectable inhibition
same,inhibition of ABHD11,human ABHD11,no detectable inhibition
